Where two headings read alike, the source gives them in different places.
Legend:
[1] = system: 60 human cancer cell lines; assay: NCI one-dose assay against sixty NCI cancer cell lines; type: cell-based
Procedure: (§1) All novel scaffolds 6a–j were carefully selected by the National Cancer Institute (NCI), Bethesda, USA, to elucidate their cytotoxic activity versus 60 human cancer cell lines at 10 µM as a single-dose concentration after a 48 h incubation period.
(§2) National Cancer Institution selected all the synthesized 6a–j (NCI), Bethesda, USA, for in vitro one-dose antitumor assay. The methodology protocol for the NCI anticancer screening was reported in detail elsewhere (http://www.dtp.nci.nih.gov). The anticancer assay was performed in full NCI 60 cell lines extracted from nine tumor cell lines, including leukemia, melanoma, lung, colon, CNS, ovarian, renal, prostate, and breast cancer cell lines.

[2] = system: SNB-75 cells (CNS cancer cell line); assay: NCI one-dose assay, SNB-75; type: cell-based; details: Homo sapiens
Procedure: as §1, §2

[3] = system: NCI/ADR-RES (ovarian cancer cell line); assay: NCI one-dose assay, NCI/ADR-RES; type: cell-based; details: Homo sapiens; NCI/ADR-RES (Ovarian Cancer), 10 uM single dose; read-out: Growth inhibition %
Procedure: as §1, §2

[4] = system: HOP-92 (non-small cell lung cancer cell line); assay: NCI one-dose assay, HOP-92; type: cell-based; details: Homo sapiens; HOP-92; 10 µM single dose, 48 h incubation; read-out: cell growth inhibition % (GI %)
Procedure: as §1, §2

UO-31 = assay: NCI one-dose assay, UO-31; type: cell-based; details: Homo sapiens; UO-31 (Renal Cancer), 10 uM single dose; read-out: Growth inhibition %
Procedure: as §1, §2

K-562 = assay: NCI one-dose assay, K-562; type: cell-based; details: Homo sapiens, K562; K-562 (Leukemia), 10 uM single dose; read-out: Growth inhibition %
Procedure: as §1, §2

MOLT-4 = assay: NCI one-dose assay, MOLT-4; type: cell-based; details: Homo sapiens; MOLT-4 (Leukemia), 10 uM single dose; read-out: Growth inhibition %
Procedure: as §1, §2

SR = assay: NCI one-dose assay, SR; type: cell-based; details: Homo sapiens; SR (Leukemia), 10 uM single dose; read-out: Growth inhibition %
Procedure: as §1, §2

LOX IMVI = assay: NCI one-dose assay, LOX IMVI; type: cell-based; details: Homo sapiens; LOX IMVI (Melanoma), 10 uM single dose; read-out: Growth inhibition %
Procedure: as §1, §2

MCF-7 = assay: NCI one-dose assay, MCF-7; type: cell-based, human; details: Homo sapiens, MCF7, MCF7 (Breast Cancer), 10 uM single dose; read-out: Growth inhibition %
Procedure: as §1, §2

T-47D = assay: NCI one-dose assay, T-47D; type: cell-based; details: Homo sapiens, T47D; T-47D (Breast Cancer), 10 uM single dose; read-out: Growth inhibition %
Procedure: as §1, §2

[5] = BT-549 (Breast Cancer), 10 uM single dose, read-out: Growth inhibition %
[6] = CAKI-1 (Renal Cancer), 10 uM single dose, read-out: Growth inhibition %
[7] = CCRF-CEM (Leukemia), 10 uM single dose, read-out: Growth inhibition %
[8] = HCT-116 (Colon Cancer), 10 uM single dose, read-out: Growth inhibition %
[9] = NCI-H226 (Non-Small Cell Lung Cancer), 10 uM single dose, read-out: Growth inhibition %
[10] = NCI-H522 (Non-Small Cell Lung Cancer), 10 uM single dose, read-out: Growth inhibition %
[11] = OVCAR-3 (Ovarian Cancer), 10 uM single dose, read-out: Growth inhibition %
[12] = PC-3 (Prostate Cancer), 10 uM single dose, read-out: Growth inhibition %
[13] = RPMI-8226 (Leukemia), 10 uM single dose, read-out: Growth inhibition %
[14] = UACC-62 (Melanoma), 10 uM single dose, read-out: Growth inhibition %
[15] = SNB-75 (CNS Cancer), 10 uM single dose, read-out: Growth inhibition %
[16] = HCT-15 (Colon Cancer), 10 uM single dose, read-out: Growth inhibition %
[17] = HOP-62 (Non-Small Cell Lung Cancer), 10 uM single dose, read-out: Growth inhibition %
[18] = HS 578T (Breast Cancer), 10 uM single dose, read-out: Growth inhibition %
[19] = M14 (Melanoma), 10 uM single dose, read-out: Growth inhibition %
[20] = NCI-H322M (Non-Small Cell Lung Cancer), 10 uM single dose, read-out: Growth inhibition %
[21] = SF-268 (CNS Cancer), 10 uM single dose, read-out: Growth inhibition %
[22] = SF-539 (CNS Cancer), 10 uM single dose, read-out: Growth inhibition %
[23] = ACHN (Renal Cancer), 10 uM single dose, read-out: Growth inhibition %
[24] = IGROV-1, IGROV1 (Ovarian Cancer), 10 uM single dose, read-out: Growth inhibition %

Compound	inhibition at 10 µM [1, 5] [%]	inhibition at 10 µM [1, 6] [%]	inhibition at 10 µM [1, 8] [%]	inhibition at 10 µM [1, 9] [%]	inhibition at 10 µM [1, 10] [%]	inhibition at 10 µM [1, 11] [%]	inhibition at 10 µM [1, 12] [%]	inhibition at 10 µM [1, 14] [%]	inhibition at 10 µM [2, 15] [%]	inhibition at 10 µM (UO-31) [%]	inhibition at 10 µM (K-562) [%]	inhibition at 10 µM (MOLT-4) [%]	inhibition at 10 µM (LOX IMVI) [%]	inhibition at 10 µM (MCF-7) [%]	inhibition at 10 µM (T-47D) [%]	melting point [°C]	inhibition at 10 µM [1, 16] [%]	inhibition at 10 µM [1, 18] [%]	inhibition at 10 µM [1, 20] [%]	inhibition at 10 µM [1, 21] [%]	other results
COc1ccc(C(=O)COc2ccc(C=C3C(=O)Nc4ccc(Cl)cc43)cc2)cc1 [Compound 6i, 5-Chloro-3-{4-[2-(4-methoxyphenyl)-2-oxoethoxy]benzylidene}indolin-2-one]	11.7	22.7	10.4	17.4	16.1	10.8	29.6	20.1	37.6	38.1	25	21.8	12.3	22.1	23.9	183 to 185					inhibition at 10 µM [1, 7]: 12.5%; inhibition at 10 µM ([1]; OVCAR-8 (Ovarian Cancer), 10 uM single dose, read-out: Growth inhibition %): 10.6%; inhibition at 10 µM [1, 13]: 19.9%; inhibition at 10 µM ([1]; SK-MEL-2 (Melanoma), 10 uM single dose, read-out: Growth inhibition %): 22.2%; inhibition at 10 µM [3]: 13.1%; inhibition at 10 µM [4]: 62.1%; inhibition at 10 µM (SR): 21.2%
O=C1Nc2ccccc2C1=Cc1ccc(OCC(=O)c2ccccc2)cc1 [Compound 6a, 3-{4-[2-Oxo-2-phenylethoxy]benzylidene}indolin-2-one]		13.1		11			17.1	12.9	26.2	30.5	11.1			11.3		219 to 221					inhibition at 10 µM [3]: 1.84%
O=C1Nc2ccc(F)cc2/C1=C\c1ccc(OCC(=O)c2ccccc2)cc1 [Compound 6d, (E/Z)-5-Fluoro-3-{4-[2-oxo-2-phenylethoxy]benzylidene}indolin-2-one]	10.9	28.3	14.3	10.3	12.4		23	30.6	33.7	32.3	33.6	32.2	17.7	23.1	14.3	223 to 226	11.7	14.8	11.2	14.6	inhibition at 10 µM [1, 7]: 15.6%; inhibition at 10 µM ([1]; EKVX (Non-Small Cell Lung Cancer), 10 uM single dose, read-out: Growth inhibition %): 18.9%; inhibition at 10 µM ([1]; HL-60(TB) (Leukemia), 10 uM single dose, read-out: Growth inhibition %): 16.9%; inhibition at 10 µM [1, 17]: 10.5%; inhibition at 10 µM ([1]; KM12 (Colon Cancer), 10 uM single dose, read-out: Growth inhibition %): 15.9%; inhibition at 10 µM [1, 19]: 12.1%; inhibition at 10 µM [1, 13]: 22.1%; inhibition at 10 µM [1, 22]: 14.3%; inhibition at 10 µM ([1]; SNB-19 (CNS Cancer), 10 uM single dose, read-out: Growth inhibition %): 14.9%; inhibition at 10 µM ([1]; U-251, U251 (CNS Cancer), 10 uM single dose, read-out: Growth inhibition %): 16.8%; inhibition at 10 µM (SR): 25.2%
O=C1Nc2cc(Cl)ccc2C1=Cc1ccc(OCC(=O)c2ccccc2)cc1 [Compound 6c, 6-Chloro-3-{4-[2-oxo-2-phenylethoxy]benzylidene}indolin-2-one]		26.4	12.2	13.2	11.7	10.8	28.5	27.9		35	18		16.5	38.2	16.3	199 to 201	23.5	12.6	11.6	11.4	inhibition at 10 µM [1, 23]: 15.9%; inhibition at 10 µM [1, 24]: 20.1%; inhibition at 10 µM [1, 19]: 11.1%; inhibition at 10 µM ([1]; RXF 393 (Renal Cancer), 10 uM single dose, read-out: Growth inhibition %): 16.4%; inhibition at 10 µM [1, 22]: 13.8%; inhibition at 10 µM ([2]; SNB-75, 10 µM single dose, 48 h incubation, read-out: cell growth inhibition % (GI %)): 41.2%
COc1ccc2c(c1)C(=Cc1ccc(OCC(=O)c3ccccc3)cc1)C(=O)N2 [Compound 6e, 5-Methoxy-3-{4-[2-oxo-2-phenylethoxy]benzylidene}indolin-2-one]		19.8	12	11.6			14.8	24.7		29.6	19.5	11.6	19.5	20.2		196 to 198	10.3		12.4		inhibition at 10 µM [1, 23]: 11.2%
O=C1Nc2ccc(Cl)cc2C1=Cc1ccc(OCC(=O)c2ccccc2)cc1 [Compound 6b, 5-Chloro-3-{4-[2-oxo-2 phenylethoxy]benzylidene}indolin-2-one]		31.9		13.3		12.7	24.9	25.1	31.1	39.5	23.5	13.4		38		189 to 191	11.9	13.7		11.3	inhibition at 10 µM [1, 17]: 14.6%; inhibition at 10 µM [1, 24]: 20.3%; inhibition at 10 µM ([1]; MDA-MB-231, read-out: Growth inhibition %): 15.5%; inhibition at 10 µM ([1]; SK-OV-3 (Ovarian Cancer), 10 uM single dose, read-out: Growth inhibition %): 11.9%

— article PMC11070402, “New antiproliferative 3-substituted oxindoles inhibiting EGFR/VEGFR-2 and tubulin polymerization” (Molecular Diversity, 2023)
